The target in assay [1] is T1, human H1 receptor (Homo sapiens, UniProt P35367).
T1 construct: purchased Euroscreen SA, Brussels, Belgium ES-390-M; host or cells: recombinant CHO-K1 cells (membranes)
Kind of assay: Histamine H1 receptor binding, displacement of [3H]-pyrilamine. The following applies: 1 nM [3H]-pyrilamine; membranes of recombinant CHO-K1 cells expressing human H1 receptor; read-out: H1 pKi/[1328_S] (converted). Background: Displacement assays read how much labelled ligand stays bound in the presence of the test substance.

Assay [2] deals with T2, CCR3 (Homo sapiens, UniProt P51677).
T2 construct: Human eosinophils were isolated from EDTA anticoagulated peripheral blood; endogenous in cells; host or cells: human peripheral blood eosinophils
T2 sequence (P51677 1-355): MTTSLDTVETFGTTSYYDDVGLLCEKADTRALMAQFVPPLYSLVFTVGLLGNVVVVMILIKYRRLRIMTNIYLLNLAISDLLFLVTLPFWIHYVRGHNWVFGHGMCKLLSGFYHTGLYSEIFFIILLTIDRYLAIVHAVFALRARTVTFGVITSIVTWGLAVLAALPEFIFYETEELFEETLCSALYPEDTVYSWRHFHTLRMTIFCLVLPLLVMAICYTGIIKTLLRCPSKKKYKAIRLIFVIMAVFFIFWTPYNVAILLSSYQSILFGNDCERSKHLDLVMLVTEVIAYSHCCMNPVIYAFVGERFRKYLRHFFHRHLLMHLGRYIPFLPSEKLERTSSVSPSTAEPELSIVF
Put plainly: Human eosinophil chemotaxis (eotaxin mediated). Format: cell-based. The following applies: read-out: % inhibition at 1 μM, 1 μM compound, human eosinophils. The protocol:
Human Eosinophil Chemotaxis
Human eosinophils were isolated from EDTA anticoagulated peripheral blood as previously described (Hansel et al., J. Immunol. Methods, 1991, 145, 105-110). The cells were resuspended at 10×10^6 mL-1 in RPMI containing 200 IU/mL penicillin, 200 μg/mL streptomycin sulfate and supplemented with 10% HIFCS, at room temperature.
Eosinophils (700 μl) were pre-incubated for 15 mins at 37° C. with 7 μl of either vehicle or compound (100× required final concentration in 10% DMSO). […] The filter was then placed over the wells and 25 μl of eosinophil suspension were added to the top of the filter. The plate was incubated for 1 hr at 37° C. in a humidified incubator with a 95% air/5% CO2, atmosphere to allow chemotaxis.
The medium, containing cells that had not migrated, was carefully aspirated from above the filter and discarded. The filter was washed once with phosphate buffered saline (PBS) containing 5 mM EDTA to remove any adherent cells. Cells that had migrated through the filter were pelleted by centrifugation (300×g for 5 mins at room temperature) and the filter removed and the supernatant transferred to each well of a 96-well plate (Costar). The pelleted cells were lysed by the addition of 28 μl of PBS containing 0.5% Triton ×100 followed by two cycles of freeze/thawing. The cell lysate was then added to the supernatant. The number of eosinophils migrating was quantified according to the method of Strath et al., J. Immunol. Methods, 1985, 83, 209 by measuring eosinophil peroxidase activity in the supernatant.

T1 sequence (P35367 whole entry): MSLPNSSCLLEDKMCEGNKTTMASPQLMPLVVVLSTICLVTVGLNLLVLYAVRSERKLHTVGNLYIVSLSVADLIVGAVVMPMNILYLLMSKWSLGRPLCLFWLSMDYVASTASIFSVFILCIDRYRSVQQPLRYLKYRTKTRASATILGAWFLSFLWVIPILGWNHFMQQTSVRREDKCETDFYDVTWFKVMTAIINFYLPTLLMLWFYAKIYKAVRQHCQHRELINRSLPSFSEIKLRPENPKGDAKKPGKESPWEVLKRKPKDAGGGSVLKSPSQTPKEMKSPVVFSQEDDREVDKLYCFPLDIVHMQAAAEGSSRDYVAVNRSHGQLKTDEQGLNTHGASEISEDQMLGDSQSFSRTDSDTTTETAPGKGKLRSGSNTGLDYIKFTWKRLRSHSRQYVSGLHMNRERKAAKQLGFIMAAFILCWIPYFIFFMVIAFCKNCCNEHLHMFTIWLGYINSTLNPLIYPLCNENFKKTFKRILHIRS

With `Clc1ccc(OC2CCN(CC3CCN(Cc4nn[nH]n4)CC3)CC2)cc1Cl` [Example 100, 4-(3,4-dichlorophenoxy)-1-[[1-(2H-tetrazol-5-ylmethyl)-4-piperidinyl]methyl]-piperidine], the Ki in assay [1] is 39.8 nM.

In general, inhibition refers to the relative decrease from the control value, in per cent. As to `Cc1ccc(C(C(=O)O)N2CCC(CN3CCC(Oc4ccc(Cl)cc4C)CC3)CC2)cc1` (stereo not drawn) [Example 13, 4-[[4-(4-Chloro-2-methylphenoxy)-1-piperidinyl]methyl]-α-(4-methylphenyl)-1-piperidineacetic acid], the Ki in assay [1] was 25.1 nM. In addition, the inhibition at 1 µM in assay [2] came to 87%.

Consider `Cc1c(Cl)ccc(OC2CCN(CC3CCN(CC(=O)O)CC3)CC2)c1Cl` [Example 78, 4-[[4-(2,4-Dichloro-3-methylphenoxy)-1-piperidinyl]methyl]-1-piperidineacetic acid], for which the Ki in assay [1] is 200 nM.

Turning to `Cc1ccccc1C(C(=O)O)N1CCC(CN2CCC(Oc3ccc(Cl)c(C)c3Cl)CC2)CC1` (stereo not drawn) [Example 8, 4-[[4-(2,4-Dichloro-3-methylphenoxy)-1-piperidinyl]methyl]-α-(2-methylphenyl)-1-piperidineacetic acid], in assay [1], the Ki is 50.1 nM.

Regarding `COc1ccccc1C(C(=O)O)N1CCC(CN2CCC(Oc3ccc(Cl)cc3C)CC2)CC1` (stereo not drawn) [Example 10, 4-[[4-(4-Chloro-2-methylphenoxy)-1-piperidinyl]methyl]-α-(2-methoxyphenyl)-1-piperidineacetic acid], the Ki in assay [1] is 251 nM. For the same compound, in assay [2], the inhibition at 1 µM was determined as 108%.

On to `COc1ccccc1C(C(=O)O)N1CCC(O)(CN2CCC(Oc3ccc(Cl)c(Cl)c3)CC2)CC1` (stereo not drawn) [Example 19, 4-[[4-(3,4-Dichlorophenoxy)-1-piperidinyl]methyl]-4-hydroxy-α-(2-methoxyphenyl)-1-piperidineacetic acid], for which the Ki in assay [1] was 7.94 nM.

Consider `O=S(=O)(NCCCN1CCC(CN2CCC(Oc3ccc(Cl)c(Cl)c3)CC2)CC1)C(F)(F)F` [Example 103, N-[3-[4-[[4-(3,4-Dichlorophenoxy)-1-piperidinyl]methyl]-1-piperidinyl]propyl]-1,1,1-trifluoro-methanesulfonamide], for which, in assay [1], the Ki is 20 nM.

For the compound `COc1ccccc1C(C(=O)O)N1CCC(CN2CCC(Oc3ccc(Cl)c(Cl)c3)CC2)CC1` (stereo not drawn) [Example 4, 4-[[4-(3,4-Dichlorophenoxy)-1-piperidinyl]methyl]-α-(2-methoxyphenyl)-1-piperidineacetic acid], the Ki in assay [1] was 100 nM. In addition, the inhibition at 1 µM in assay [2] turned out to be 90%.

Regarding `COc1ncc(C(C(=O)O)N2CCC(CN3CCC(Oc4ccc(Cl)c(Cl)c4)CC3)CC2)c(OC)n1` (stereo not drawn) [Example 12, α-[4-[[4-(3,4-Dichlorophenoxy)-1-piperidinyl]methyl]-1-piperidinyl]-2,4-dimethoxy-5-pyrimidineacetic acid], in assay [1], the Ki was 200 nM.

`O=C(O)C(c1ccc(F)cc1)N1CCC(CN2CCC(Oc3ccc(Cl)c(Cl)c3)CC2)CC1` (stereo not drawn) [Example 3, 4-[[4-(3,4-Dichlorophenoxy)-1-piperidinyl]methyl]-α-(4-fluorophenyl)-1-piperidineacetic acid]: the Ki in assay [1] was 39.8 nM.

Turning to `COc1ccccc1C(C(=O)O)N1CCC(CN2CCC(Oc3ccc(Cl)c(C)c3Cl)CC2)CC1` (stereo not drawn) [Example 7, 4-[[4-(2,4-Dichloro-3-methylphenoxy)-1-piperidinyl]methyl]-α-(2-methoxyphenyl)-1-piperidineacetic acid], the Ki in assay [1] was 79.4 nM.

As to `Cc1ccccc1C(C(=O)O)N1CCC(CN2CCC(Oc3ccc(Cl)c(Cl)c3)CC2)CC1` (stereo not drawn) [Example 5, 4-[[4-(3,4-Dichlorophenoxy)-1-piperidinyl]methyl]-α-(2-methylphenyl)-1-piperidineacetic acid], the Ki in assay [1] is 79.4 nM.

Consider `COC(=O)c1ccccc1CN1CCC(CN2CCC(Oc3ccc(Cl)c(Cl)c3)CC2)CC1` [Example 42, methyl 2-[(4-{[4-(3,4-dichlorophenoxy)piperidin-1-yl]methyl}piperidin-1-yl)methyl]benzoate], for which the Ki in assay [1] is 10 nM.

Take `O=C(O)CN1CCC(O)(CN2CCC(Oc3ccc(Cl)c(Cl)c3)CC2)CC1` [Example 82, 4-[[4-(3,4-Dichlorophenoxy)-1-piperidinyl]methyl]-4-hydroxy-1-piperidineacetic acid]: the Ki in assay [1] is 100 nM.

For the compound `O=C(O)C(c1ccccc1)N1CCC(O)(CN2CCC(Oc3ccc(Cl)c(Cl)c3)CC2)CC1` (stereo not drawn) [Example 17, 4-[[4-(3,4-Dichlorophenoxy)-1-piperidinyl]methyl]-4-hydroxy-α-phenyl-1-piperidineacetic acid], the Ki in assay [1] was 10 nM.

Take `Cc1cc(Cl)ccc1OC1CCN(CC2CCN(C(C(=O)O)c3ccccc3C)CC2)CC1` (stereo not drawn) [Example 11, 4-[[4-(4-Chloro-2-methylphenoxy)-1-piperidinyl]methyl]-α-(2-methylphenyl)-1-piperidineacetic acid]: in assay [1], the Ki was 158 nM.

As to `O=C(O)CN1CCC(CN2CCC(Oc3ccc(Cl)c(Cl)c3)CC2)CC1` [Example 77, 4-[[4-(3,4-dichlorophenoxy)-1-piperidinyl]methyl]-1-piperidineacetic acid], in assay [1], the Ki was 126 nM.

Turning to `Cc1c(Cl)ccc(OC2CCN(CC3CCN(C(C(=O)O)c4ccc(F)cc4)CC3)CC2)c1Cl` (stereo not drawn) [Example 15, 4-[[4-(2,4-Dichloro-3-methylphenoxy)-1-piperidinyl]methyl]-α-(4-fluorophenyl)-1-piperidineacetic acid], the Ki in assay [1] was 25.1 nM.

As to `Cc1ccc(C(C(=O)O)N2CCC(O)(CN3CCC(Oc4ccc(Cl)c(Cl)c4)CC3)CC2)cc1` (stereo not drawn) [Example 18, 4-[[4-(3,4-Dichlorophenoxy)-1-piperidinyl]methyl]-4-hydroxy-α-(4-methylphenyl)-1-piperidineacetic acid], in assay [1], the Ki was 15.8 nM.

With `Cc1ccc(C(C(=O)O)N2CCC(CN3CCC(Oc4ccc(Cl)c(Cl)c4)CC3)CC2)cc1` (stereo not drawn) [Example 6, 4-[[4-(3,4-Dichlorophenoxy)-1-piperidinyl]methyl]-α-(4-methylphenyl)-1-piperidineacetic acid], the Ki in assay [1] is 20 nM.

As for `Cc1c(Cl)ccc(OC2CCN(CC3CCN(C(C(=O)O)c4ccccc4)CC3)CC2)c1Cl` (stereo not drawn) [Example 2, 4-[[4-(2,4-Dichloro-3-methylphenoxy)-1-piperidinyl]methyl]-α-phenyl-1-piperidineacetic acid], the Ki in assay [1] is 31.6 nM.

In the case of `COC(=O)CN1CCC(CN2CCC(Oc3ccc(Cl)cc3C)CC2)CC1` [Example 69, Methyl-4-[[4-(4-chloro-2-methylphenoxy)-1-piperidinyl]methyl]-1-piperidineacetate], the Ki in assay [1] is 126 nM.

Take `Cc1ccc(C(C(=O)O)N2CCC(CN3CCC(Oc4ccc(Cl)c(C)c4Cl)CC3)CC2)cc1` (stereo not drawn) [Example 9, 4-[[4-(2,4-Dichloro-3-methylphenoxy)-1-piperidinyl]methyl]-α-(4-methylphenyl)-1-piperidineacetic acid]: in assay [1], the Ki was 31.6 nM.

As for `C[C@@H](C(=O)O)N1CCC(CN2CCC(Oc3ccc(Cl)c(Cl)c3)CC2)CC1` [Example 84, (2S)-2-(4-{[4-(3,4-Dichlorophenoxy)piperidin-1-yl]methyl}piperidin-1-yl)propanoic acid], the Ki in assay [1] is 200 nM.

Take `CC(=O)Nc1cccc(C(C(=O)O)N2CCC(CN3CCC(Oc4ccc(Cl)c(Cl)c4)CC3)CC2)c1` (stereo not drawn) [Example 14, α-[3-(Acetylamino)phenyl]-4-[[4-(3,4-dichlorophenoxy)-1-piperidinyl]methyl]-1-piperidineacetic acid]: the Ki in assay [1] was 25.1 nM.

The values are drawn from US20060040984A1, “Novel piperidine derivatives for use in the treatment of chemokine medicated disease states” (priority 2002, published 2006).
